Experimental data: US6737383B1, “Herbicidal oxadiazolidines” (priority 1999, dated 2004)

Assays:
bedstraw = experiment: Test B pre/postemergence bedstraw; assay type: in vivo, Galium aparine
Method in brief: (§1)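 Response is a visual 0-to-10 score relative to untreated plants, where 0 means no effect and 10 means complete control, taken twelve to sixteen days after application. Treatments went onto soil at planting and onto foliage of 1- to 4-leaf plants, using a surfactant-containing non-phytotoxic solvent.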

blackgrass = experiment: Test B pre/postemergence blackgrass; assay type: in vivo, Alopecurus myosuroides
Method in brief: as §1

surinam grass = experiment: Test B pre/postemergence surinam grass; assay type: in vivo, Brachiaria decumbens
Method in brief: as §1

cocklebur = experiment: Test B pre/postemergence cocklebur; assay type: in vivo, Xanthium strumarium
Method in brief: as §1

corn = experiment: Test B pre/postemergence corn; assay type: in vivo, Zea mays
Method in brief: as §1

crabgrass = experiment: Test B pre/postemergence crabgrass; assay type: in vivo, Digitaria sanguinalis
Method in brief: as §1

giant foxtail = experiment: Test B pre/postemergence giant foxtail; assay type: in vivo, Setaria faberii
Method in brief: as §1

morningglory = experiment: Test B pre/postemergence morningglory; assay type: in vivo, Ipomoea hederacea
Method in brief: as §1

pigweed = experiment: Test B pre/postemergence pigweed; assay type: in vivo, Amaranthus retroflexus
Method in brief: as §1

rape = experiment: Test B pre/postemergence rape; assay type: in vivo, Brassica napus
Method in brief: as §1

soybean = experiment: Test B pre/postemergence soybean; assay type: in vivo, Glycine max
Method in brief: as §1

sugar beet = experiment: Test B pre/postemergence sugar beet; assay type: in vivo, Beta vulgaris
Method in brief: as §1

velvetleaf = experiment: Test B pre/postemergence velvetleaf; assay type: in vivo, Abutilon theophrasti
Method in brief: as §1

wheat = experiment: Test B pre/postemergence wheat; assay type: in vivo, Triticum aestivum
Method in brief: as §1

wild oat = experiment: Test B pre/postemergence wild oat; assay type: in vivo, Avena fatua
Method in brief: as §1

purple nutsedge = experiment: Test B pre/postemergence purple nutsedge; assay type: in vivo, Cyperus rotundus
Method in brief: as §1

[1] = Postemergence, Rate 125 g/ha, scale of 0 to 10 where 0 is no effect and 10 is complete control
[2] = Preemergence, Rate 125 g/ha, scale of 0 to 10 where 0 is no effect and 10 is complete control
[3] = Preemergence, Rate 250 g/ha, scale 0 (no effect) to 10 (complete control)
[4] = Rate 62 g/ha, Preemergence, scale 0 to 10
[5] = Rate 250 g/ha, Postemergence, scale 0 to 10, 0 is no effect, 10 is complete control
[6] = Rate 500 g/ha, Preemergence, scale 0 to 10 (0 no effect, 10 complete control)
[7] = Postemergence, Rate 62 g/ha, scale 0 to 10, 0 is no effect, 10 is complete control
[8] = Rate 500 g/ha, Postemergence, scale 0 to 10, 0 is no effect, 10 is complete control

## C#CCn1c(=O)on(C(=O)N(c2ccccc2)C(C)C)c1=O [Compound 754]
bedstraw; [1]
  Bedstraw plant response rating: 0
bedstraw; [2]
  Plant response rating, Bedstraw: 0
bedstraw; [3]
  Bedstraw plant response rating: 0
bedstraw; [4]
  Bedstraw plant response rating: 0
bedstraw; [5]
  Bedstraw plant response rating: 0
bedstraw; [6]
  Bedstraw plant response rating: 0
blackgrass; [7]
  Plant response rating, Blackgrass: 2
blackgrass; [1]
  Blackgrass plant response rating: 4
blackgrass; [2]
  Plant response rating, Blackgrass: 9
blackgrass; [3]
  Blackgrass plant response rating: 9
blackgrass; [4]
  Blackgrass plant response rating: 7
blackgrass; [5]
  Blackgrass plant response rating: 5
blackgrass; [8]
  Blackgrass plant response rating: 5
blackgrass; [6]
  Blackgrass plant response rating: 9
Surinam grass; [7]
  Plant response rating, B. signalgrass: 0
Surinam grass; [1]
  B. signalgrass plant response rating: 2
Surinam grass; Preemergence, Rate 62 g/ha, scale of 0 to 10 where 0 is no effect and 10 is complete control
  B. signalgrass plant response rating: 3
Surinam grass; [2]
  Plant response rating, B. signalgrass: 3
Surinam grass; [3]
  B. signalgrass plant response rating: 8
Surinam grass; [5]
  B. signalgrass plant response rating: 6
Surinam grass; [8]
  B. signalgrass plant response rating: 8
Surinam grass; [6]
  B. signalgrass plant response rating: 9
cocklebur; [7]
  Plant response rating, Cocklebur: 0
cocklebur; [1]
  Cocklebur plant response rating: 0
cocklebur; [2]
  Plant response rating, Cocklebur: 0
cocklebur; [3]
  Cocklebur plant response rating: 0
cocklebur; [4]
  Cocklebur plant response rating: 0
cocklebur; [5]
  Cocklebur plant response rating: 0
cocklebur; [8]
  Cocklebur plant response rating: 0
cocklebur; [6]
  Cocklebur plant response rating: 0
corn; [7]
  Plant response rating, Corn: 0
corn; [1]
  Corn plant response rating: 0
corn; [2]
  Plant response rating, Corn: 0
corn; [3]
  Corn plant response rating: 0
corn; [4]
  Corn plant response rating: 0
corn; [5]
  Corn plant response rating: 2
corn; [8]
  Corn plant response rating: 5
corn; [6]
  Corn plant response rating: 0
crabgrass; [7]
  Plant response rating, Crabgrass: 5
crabgrass; [1]
  Crabgrass plant response rating: 5
crabgrass; [2]
  Plant response rating, Crabgrass: 9
crabgrass; [3]
  Crabgrass plant response rating: 9
crabgrass; [4]
  Crabgrass plant response rating: 8
crabgrass; [5]
  Crabgrass plant response rating: 9
crabgrass; [8]
  Crabgrass plant response rating: 9
crabgrass; [6]
  Crabgrass plant response rating: 9
Giant foxtail; [7]
  Plant response rating, Giant foxtail: 4
Giant foxtail; [1]
  Giant foxtail plant response rating: 8
Giant foxtail; [2]
  Plant response rating, Giant foxtail: 9
Giant foxtail; [3]
  Giant foxtail plant response rating: 9
Giant foxtail; [4]
  Giant foxtail plant response rating: 8
Giant foxtail; [5]
  Giant foxtail plant response rating: 8
Giant foxtail; [8]
  Giant foxtail plant response rating: 8
Giant foxtail; [6]
  Giant foxtail plant response rating: 9
morningglory; [7]
  Plant response rating, Morningglory: 10
morningglory; [1]
  Morningglory plant response rating: 10
morningglory; [2]
  Plant response rating, Morningglory: 0
morningglory; [3]
  Morningglory plant response rating: 1
morningglory; [4]
  Morningglory plant response rating: 0
morningglory; [5]
  Morningglory plant response rating: 10
morningglory; [8]
  Morningglory plant response rating: 10
morningglory; [6]
  Morningglory plant response rating: 1
pigweed; [1]
  Redroot pigweed plant response rating: 0
pigweed; [2]
  Plant response rating, Redroot pigweed: 8
pigweed; [3]
  Redroot pigweed plant response rating: 9
pigweed; [4]
  Redroot pigweed plant response rating: 8
pigweed; [5]
  Redroot pigweed plant response rating: 0
pigweed; [6]
  Redroot pigweed plant response rating: 9
rape; [7]
  Plant response rating, Rape: 0
rape; [1]
  Rape plant response rating: 0
rape; [2]
  Plant response rating, Rape: 4
rape; [3]
  Rape plant response rating: 6
rape; [4]
  Rape plant response rating: 0
rape; [5]
  Rape plant response rating: 0
rape; [8]
  Rape plant response rating: 0
rape; [6]
  Rape plant response rating: 8
soybean; [7]
  Plant response rating, Soybean: 0
soybean; [2]
  Plant response rating, Soybean: 0
soybean; [3]
  Soybean plant response rating: 0
soybean; [4]
  Soybean plant response rating: 0
soybean; [5]
  Soybean plant response rating: 2
soybean; [8]
  Soybean plant response rating: 2
soybean; [6]
  Soybean plant response rating: 0
Sugar beet; [7]
  Plant response rating, Sugarbeets: 0
Sugar beet; [2]
  Plant response rating, Sugarbeets: 0
Sugar beet; [3]
  Sugarbeets plant response rating: 3
Sugar beet; [4]
  Sugarbeets plant response rating: 0
Sugar beet; [5]
  Sugarbeets plant response rating: 0
Sugar beet; [8]
  Sugarbeets plant response rating: 3
Sugar beet; [6]
  Sugarbeets plant response rating: 7
velvetleaf; [7]
  Plant response rating, Velvetleaf: 0
velvetleaf; [2]
  Plant response rating, Velvetleaf: 1
velvetleaf; [3]
  Velvetleaf plant response rating: 3
velvetleaf; [4]
  Velvetleaf plant response rating: 0
velvetleaf; [5]
  Velvetleaf plant response rating: 0
velvetleaf; [8]
  Velvetleaf plant response rating: 0
velvetleaf; [6]
  Velvetleaf plant response rating: 5
wheat; [7]
  Plant response rating, Wheat: 0
wheat; [2]
  Plant response rating, Wheat: 3
wheat; [3]
  Wheat plant response rating: 7
wheat; [4]
  Wheat plant response rating: 0
wheat; [5]
  Wheat plant response rating: 5
wheat; [8]
  Wheat plant response rating: 5
wheat; [6]
  Wheat plant response rating: 9
Wild oat; [7]
  Plant response rating, Wild oats: 0
Wild oat; [2]
  Plant response rating, Wild oats: 6
Wild oat; [3]
  Wild oats plant response rating: 8
Wild oat; [4]
  Wild oats plant response rating: 0
Wild oat; [5]
  Wild oats plant response rating: 0
Wild oat; [8]
  Wild oats plant response rating: 0
Wild oat; [6]
  Wild oats plant response rating: 9
Purple nutsedge; [7]
  Plant response rating, Nutsedge: 0
Purple nutsedge; [1]
  Nutsedge plant response rating: 0
Purple nutsedge; [2]
  Plant response rating, Nutsedge: 3
Purple nutsedge; [3]
  Nutsedge plant response rating: 3
Purple nutsedge; [4]
  Nutsedge plant response rating: 3
Purple nutsedge; [8]
  Nutsedge plant response rating: 0
Purple nutsedge; [6]
  Nutsedge plant response rating: 10
